Data on 3 molecules can be found in ChEMBL document CHEMBL1137255, “HIV-1 protease mutations and inhibitor modifications monitored on a series of complexes. Structural basis for the effect of the A71V mutation on the active site” (J Med Chem, 2006).

Test [1] has as its target T1, Human immunodeficiency virus type 1 protease (Human immunodeficiency virus 1, UniProt Q72874). Kind of test: Inhibition of HIV1 protease I8 mutant.
For test [2], the target named is T1, Human immunodeficiency virus type 1 protease. Kind of test: Inhibition of wild type HIV1 protease.

As a reminder, the Ki is a measure of affinity in units of concentration, obtained from inhibition or displacement. Read a low Ki as tighter binding. In the case of `CC(C)(C)OC(=O)N[C@@H](Cc1ccccc1)[C@@H](O)C[C@@H](Cc1ccccc1)C(=O)N[C@@H](CCC(N)=O)C(=O)N[C@@H](Cc1ccccc1)C(N)=O`, the Ki in test [1] worked out at 0.26 nM; in test [2], 0.02 nM.

Consider `CC(C)(C)OC(=O)N[C@@H](Cc1ccccc1)[C@@H](O)CN[C@@H](Cc1ccccc1)C(=O)N[C@@H](CCC(=O)O)C(=O)N[C@@H](Cc1ccccc1)C(N)=O`, for which the Ki in test [1] came to 86 nM; in test [2], 0.15 nM.

Consider `CC(C)(C)OC(=O)N[C@@H](Cc1ccccc1)[C@@H](O)CN[C@@H](Cc1ccccc1)C(=O)N[C@@H](CCC(N)=O)C(=O)N[C@@H](Cc1ccccc1)C(N)=O`, for which the Ki in test [1] came out at 1000 nM; in test [2] it was 33 nM.
